Test results from patent publication US11873292B2, “Trans-indoline cyclopropylamine chemical compound, and method for preparation, pharmaceutical composition, and use thereof” (Shanghai Institute of Materia Medica, Chinese Academy of …, priority 2016, dated 2024).
Read-outs that look alike come from different tables or passages of the source.

Assays:
[1] = test system: Leukemia cell line MV4-11; test: Growth-inhibitory activity by MTS method; format: cell-based; conditions: Homo sapiens, MV4-11 cells
Text: MTS assay was used to detect the growth inhibitory effect of tested compounds on leukemia cell MV (4:11), the principle of which was that succinate dehydrogenase in mitochondria in living cells can reduce exogenous thiazole blue to insoluble Blue crystalline Formazan.
MATERIALS: Leukemia cell line MV4-11: pediatric acute lymphocytic leukemia, immunological double phenotype, AF4-MLL fusion t (4,11), is a cell growth inhibitory cell line of LSD1 inhibitor (Cancer cell. 2012, 17; 21(4): 473-487).
1. MV4-11 cells in the logarithmic growth phase were taken, accurately counted 16000 cells/mL, and the diluted cell solution was added to a 96-well plate at 90 μL per well.
2. Fresh medium was taken and sequentially added to a 96-well plate with cell fluid, 90 μL per well.
3. In the compound plate, the compound to be tested at a concentration of 10 mM and the positive compounds ORY-1001 and GSK2879552 were taken and subjected to a 3-fold concentration gradient dilution with DMSO, 8 points for each.
4. 2 μL of the diluted compound was separately added to a 96-well plate containing 98 μL of blank medium, and DMSO group was added with 2 μL of DMSO into 98 μL of blank medium, and mixed for use.
5. The compound homogeneously mixed with the medium was separately added to a 96-well plate in which cells were plated in triplicate, 20 μL per well, and well mixed. In the blank group, 200 μL of IMDM medium was added, and in the DMSO group, 180 μL of the cell-containing medium in DMSO diluted with the medium was added.
6. […]
7. After 10 days, MTS was added and the values were read after 2.5 h of incubation.

[2] = target: Human recombinant MAOA (Homo sapiens (Human), UniProt P21397); test: MAOA in vitro activity experiment (MAO-Glo); format: biochemical
Sequence of Human recombinant MAOA (P21397 whole entry): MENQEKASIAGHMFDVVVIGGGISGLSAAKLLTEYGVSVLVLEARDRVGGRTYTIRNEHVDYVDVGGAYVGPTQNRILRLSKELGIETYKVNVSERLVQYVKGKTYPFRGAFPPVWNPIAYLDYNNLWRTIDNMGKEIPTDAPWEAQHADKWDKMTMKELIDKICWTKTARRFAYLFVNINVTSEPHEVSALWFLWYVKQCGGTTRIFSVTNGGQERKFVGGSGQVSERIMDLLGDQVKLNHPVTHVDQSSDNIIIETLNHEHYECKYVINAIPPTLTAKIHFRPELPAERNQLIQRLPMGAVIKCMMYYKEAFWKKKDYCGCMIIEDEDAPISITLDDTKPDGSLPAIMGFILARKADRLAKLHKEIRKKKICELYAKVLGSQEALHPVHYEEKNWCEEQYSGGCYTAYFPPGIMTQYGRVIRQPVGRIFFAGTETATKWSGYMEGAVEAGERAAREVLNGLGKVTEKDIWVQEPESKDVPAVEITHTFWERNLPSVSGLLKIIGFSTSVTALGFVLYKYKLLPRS

[3] = target: human recombinant MAOB (Homo sapiens (Human), UniProt P27338); test: MAOB in vitro activity experiment (MAO-Glo); format: biochemical
Sequence of human recombinant MAOB (P27338 whole entry): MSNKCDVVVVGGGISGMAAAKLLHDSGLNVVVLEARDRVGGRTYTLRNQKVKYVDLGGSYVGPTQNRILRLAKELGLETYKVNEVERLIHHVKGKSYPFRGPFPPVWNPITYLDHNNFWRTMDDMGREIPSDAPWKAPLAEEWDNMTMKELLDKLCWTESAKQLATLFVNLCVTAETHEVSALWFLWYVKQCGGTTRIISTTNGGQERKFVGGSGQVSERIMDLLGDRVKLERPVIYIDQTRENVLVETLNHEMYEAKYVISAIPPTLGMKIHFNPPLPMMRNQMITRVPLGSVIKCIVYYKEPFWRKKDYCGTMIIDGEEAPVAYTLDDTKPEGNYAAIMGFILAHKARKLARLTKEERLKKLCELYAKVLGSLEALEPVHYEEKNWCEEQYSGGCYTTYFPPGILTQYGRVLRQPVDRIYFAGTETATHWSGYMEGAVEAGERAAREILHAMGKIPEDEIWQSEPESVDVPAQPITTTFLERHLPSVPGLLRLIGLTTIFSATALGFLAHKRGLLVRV

[4] = target: Human recombinant LSD1 (Homo sapiens (Human), UniProt O60341); test: LSD1 in vitro activity assay (LANCE Ultra LSD1 Histone H3-Lysine 4 Demethylase Assay); format: biochemical; conditions: LSD1 inhibition

SMILES: O=S(=O)(c1ccccc1)N1CCc2cc(C3CC3NCC3CCNCC3)ccc21 (stereo not drawn) [Compound A14, trans-N-(4-piperidinylmethylene)-2-(1-(phenylsulfonyl)indolin-5-yl)cyclopropylamine]
- IC50 ([1]; 3 D, read-out: MTS 3 D): 7910 ± 1610 nM
- IC50 ([1]; 10 D, read-out: MTS 10 D): 1360 ± 920 nM

SMILES: O=S(=O)(c1ccccc1)N1CCc2cc([C@@H]3C[C@H]3NCC3CCN(Cc4ccccc4)CC3)ccc21 (relative stereo) [Compound A24, trans-N-((1-benzylpiperidin-4-yl)methyl)-2-(1-(phenylsulfonyl)indolin-5-yl)cyclopropylamine]
- IC50 [2]: 15.9 ± 2 µM
- IC50 [3]: > 100 µM

SMILES: NC1CCC(CNC2CC2c2ccc3c(c2)CCN3S(=O)(=O)c2ccccc2)CC1 (stereo not drawn) [Compound A18, trans-4-((2-(1-(phenylsulfonyl)indolin-5-yl)cyclopropylamino)methyl)cyclohexylamine]
- IC50 [2]: 96.3 ± 2.05 µM

SMILES: O=S(=O)(C1CCCCC1)N1CCc2cc([C@@H]3C[C@H]3NCC3CCNCC3)ccc21 (relative stereo) [Compound A43, trans-2-(1-(cyclohexylsulfonyl)indolin-5-yl)-N-(piperidin-4-ylmethyl)cyclopropylamine]
- IC50 [2]: > 100 µM
- IC50 [3]: > 100 µM

SMILES: NC1CCC(NC2CC2c2ccc3c(c2)CCN3S(=O)(=O)c2ccccc2)CC1 (stereo not drawn) [Compound A19, trans-N1-(2-(1-(phenylsulfonyl)indolin-5-yl)cyclopropyl)cyclohexane-1,4-diamine]
- IC50 ([1]; 3 D, read-out: MTS 3 D): 8550 ± 1840 nM
- IC50 ([1]; 10 D, read-out: MTS 10 D): 1160 ± 260 nM

SMILES: CCCCC(=O)N1CCc2cc([C@@H]3C[C@H]3NCC3CCNCC3)ccc21 (relative stereo) [Compound A55, Trans-1-(5-(2-(piperidin-4-ylmethylamino)cyclopropyl)indolin-1-yl)pentan-1-one]
- IC50 [2]: > 100 µM
- IC50 [3]: > 100 µM

SMILES: O=S(=O)(c1ccc(-c2ccccc2)cc1)N1CCc2cc([C@@H]3C[C@H]3NCC3CCNCC3)ccc21 (relative stereo) [Compound A32, Trans-2-(1-(biphenyl-4-ylsulfonyl)indolin-5-yl)-N-(piperidin-4-ylmethyl)cyclopropylamine]
- IC50 [2]: > 100 µM
- IC50 [3]: 89.4 ± 2.05 µM

SMILES: O=S(=O)(c1ccccc1)N1CCc2cc(C3CC3NCc3c[nH]c4ccccc34)ccc21 (stereo not shown) [Compound A8]
- IC50 ([1]; 3 D, read-out: MTS 3 D): 1250 ± 510 nM
- IC50 ([1]; 10 D, read-out: MTS 10 D): 600 ± 130 nM

SMILES: CC1(CN[C@@H]2C[C@H]2c2ccc3c(c2)CCN3S(=O)(=O)c2ccccc2)CCNCC1 (relative stereo) [Compound A21, trans-N-((4-methylpiperidin-4-yl)methyl)-2-(1-(phenylsulfonyl)indolin-5-yl)cyclopropylamine]
- IC50 [2]: > 100 µM
- IC50 [3]: > 100 µM

SMILES: CCCS(=O)(=O)N1CCc2cc([C@@H]3C[C@H]3NCC3CCNCC3)ccc21 (relative stereo) [Compound A41, trans-N-(piperidin-4-ylmethyl)-2-(1-(propylsulfonyl)indolin-5-yl)cyclopropylamine]
- melting point: 187 to 191 °C
- IC50 [2]: > 100 µM
- IC50 [3]: > 100 µM

SMILES: CS(=O)(=O)N1CCc2cc([C@@H]3C[C@H]3NCC3CCNCC3)ccc21 (relative stereo) [Compound A40, Trans-2-(1-(methylsulfonyl)indolin-5-yl)-N-(piperidin-4-ylmethyl)cyclopropylamine]
- IC50 [2]: > 100 µM
- IC50 [3]: > 100 µM

SMILES: CCC(=O)N1CCc2cc([C@@H]3C[C@H]3NCC3CCNCC3)ccc21 (relative stereo) [Compound A53, Trans-1-(5-(2-(piperidin-4-ylmethylamino)cyclopropyl)indolin-1-yl)propan-1-one]
- IC50 [2]: > 100 µM
- IC50 [3]: > 100 µM

SMILES: O=S(=O)(c1cccc(C(F)(F)F)c1)N1CCc2cc([C@@H]3C[C@H]3NCC3CCNCC3)ccc21 (relative stereo) [Compound A35, trans-N-(piperidin-4-ylmethyl)-2-(1-(3-(trifluoromethyl)benzenesulfonyl)indolin-5-yl)cyclopropylamine]
- IC50 [2]: 49.8 ± 20.9 µM
- IC50 [3]: 86.2 ± 18.7 µM

SMILES: O=S(=O)(c1ccccc1)N1CCc2cc([C@@H]3C[C@H]3NCC3CNC3)ccc21 (relative stereo) [Compound A17, trans-N-(azetidin-3-ylmethyl)-2-(1-(phenylsulfonyl)indolin-5-yl)cyclopropylamine]
- IC50 [2]: 16.2 ± 0.31 µM
- IC50 [3]: 9.22 ± 0.98 µM

SMILES: O=S(=O)(c1ccccc1)N1CCc2cc([C@@H]3C[C@H]3NC3CCNCC3)ccc21 (relative stereo) [Compound A15, trans-N-(4-piperidinyl)-2-(1-(phenylsulfonyl)indolin-5-yl)cyclopropylamine]
- IC50 ([1]; 3 D, read-out: MTS 3 D): 3400 ± 1640 nM
- IC50 ([1]; 10 D, read-out: MTS 10 D): 180 ± 490 nM
- IC50 [4]: 22.8 ± 0.37 nM
- IC50 [2]: > 100 µM
- IC50 [3]: > 100 µM

SMILES: O=S(=O)(c1ccccc1)N1CCc2cc([C@@H]3C[C@H]3NC3CC4(CCNCC4)C3)ccc21 (relative stereo) [Compound A20, trans-N-(2-(1-(phenylsulfonyl)indolin-5-yl)cyclopropyl)-7-azaspiro[3.5]nonane-2-amine]
- IC50 [2]: > 100 µM
- IC50 [3]: > 100 µM

SMILES: COc1cccc(S(=O)(=O)N2CCc3cc([C@@H]4C[C@H]4NCC4CCNCC4)ccc32)c1 (relative stereo) [Compound A39, trans-2-(1-(3-methoxybenzenesulfonyl)indolin-5-yl)-N-(piperidin-4-ylmethyl)cyclopropylamine]
- IC50 [2]: 38.6 ± 5.23 µM
- IC50 [3]: > 100 µM

SMILES: O=S(=O)(N1CCc2cc([C@@H]3C[C@H]3NCC3CCNCC3)ccc21)C(F)(F)F (relative stereo) [Compound A42, trans-N-(piperidin-4-ylmethyl)-2-(1-(trifluoromethanesulfonyl)indolin-5-yl)cyclopropylamine]
- IC50 [2]: 86.6 ± 1.05 µM
- IC50 [3]: 3.14 ± 0.15 µM

SMILES: O=S(=O)(c1ccc2ccccc2c1)N1CCc2cc([C@@H]3C[C@H]3NCC3CCNCC3)ccc21 (relative stereo) [Compound A33, Trans-2-(1-(naphthalen-2-ylsulfonyl)indolin-5-yl)-N-(piperidin-4-ylmethyl)cyclopropylamine]
- IC50 [2]: 35.5 ± 0.87 µM
- IC50 [3]: 82 ± 1.39 µM

SMILES: CC(C)(C)C(=O)N1CCc2cc([C@@H]3C[C@H]3NCC3CCNCC3)ccc21 (relative stereo) [Compound A58, Trans-2,2-dimethyl-1-(5-(2-(piperidin-4-ylmethylamino)cyclopropyl)indolin-1-yl)propan-1-one]
- IC50 ([1]; 3 D, read-out: MTS 3 D): > 20000 nM
- IC50 ([1]; 10 D, read-out: MTS 10 D): 1230 ± 1130 nM
- IC50 [2]: > 100 µM
- IC50 [3]: 70.7 ± 12.6 µM

SMILES: O=C(Cc1ccccc1)N1CCc2cc([C@@H]3C[C@H]3NCC3CCNCC3)ccc21 (relative stereo) [Compound A49, Trans-2-phenyl-1-(5-(2-(piperidin-4-ylmethylamino)cyclopropyl)indolin-1-yl)ethanone]
- IC50 ([1]; 3 D, read-out: MTS 3 D): > 20000 nM
- IC50 ([1]; 10 D, read-out: MTS 10 D): 3230 ± 3640 nM
- IC50 [2]: > 100 µM
- IC50 [3]: > 100 µM

SMILES: O=S(=O)(c1cccc(Cl)c1)N1CCc2cc([C@@H]3C[C@H]3NCC3CCNCC3)ccc21 (relative stereo) [Compound A38, trans-2-(1-(3-chlorobenzenesulfonyl)indolin-5-yl)-N-(piperidin-4-ylmethyl)cyclopropylamine]
- IC50 [2]: 73.9 ± 1.34 µM
- IC50 [3]: 40.9 ± 1.41 µM

SMILES: O=C(c1ccccc1)N1CCc2cc([C@@H]3C[C@H]3NCC3CCNCC3)ccc21 (relative stereo) [Compound A45, trans-phenyl (5-(2-(piperidin-4-ylmethylamino)cyclopropyl)indolin-1-yl)methanone]
- IC50 ([1]; 3 D, read-out: MTS 3 D): > 20000 nM
- IC50 ([1]; 10 D, read-out: MTS 10 D): 4140 ± 3470 nM
- IC50 [2]: > 100 µM
- IC50 [3]: 32.9 ± 1.24 µM

SMILES: CCCC(=O)N1CCc2cc([C@@H]3C[C@H]3NCC3CCNCC3)ccc21 (relative stereo) [Compound A54, Trans-1-(5-(2-(piperidin-4-ylmethylamino)cyclopropyl)indolin-1-yl)butan-1-one]
- IC50 [2]: > 100 µM
- IC50 [3]: > 100 µM

SMILES: COCCC(=O)N1CCc2cc([C@@H]3C[C@H]3NCC3CCNCC3)ccc21 (relative stereo) [Compound A56, Trans-3-methoxy-1-(5-(2-(piperidin-4-ylmethylamino)cyclopropyl)indolin-1-yl)propan-1-one]
- IC50 [4]: 26.9 ± 22.1 nM
- IC50 [2]: > 100 µM
- IC50 [3]: > 100 µM

SMILES: O=S(=O)(c1ccccc1)N1CCc2cc([C@@H]3C[C@H]3NCCC3CCNCC3)ccc21 (relative stereo) [Compound A16, trans-N-(4-piperidinylethyl)-2-(1-(phenylsulfonyl)indolin-5-yl)cyclopropylamine]
- IC50 ([1]; 3 D, read-out: MTS 3 D): 8250 ± 1700 nM
- IC50 ([1]; 10 D, read-out: MTS 10 D): 1210 ± 400 nM
- IC50 [2]: > 100 µM
- IC50 [3]: > 100 µM

SMILES: O=C(C1CCCCC1)N1CCc2cc([C@@H]3C[C@H]3NCC3CCNCC3)ccc21 (relative stereo) [Compound A59, Trans-cyclohexyl (5-(2-(piperidin-4-ylmethylamino)cyclopropyl)indolin-1-yl)methanone]
- melting point: 166 to 168 °C

SMILES: O=C(O)c1ccc(CN2CCC(CN[C@@H]3C[C@H]3c3ccccc3)CC2)cc1 [GSK2879552, GSK-2879552, reference compound]
- IC50 ([1]; 3 D, read-out: MTS 3 D): > 20000 nM
- IC50 ([1]; 10 D, read-out: MTS 10 D): 1810 nM
- IC50 [4]: 404 ± 30.8 nM
- IC50 [2]: > 100 µM
- IC50 [3]: > 100 µM
